Experimental data taken from US20150141381A1, “TETRACYCLINE COMPOUNDS HAVING TARGET THERAPEUTIC ACTIVITIES” (Paratek Pharmaceuticals, Inc., priority 2001, published 2015).
Like-named read-outs stand apart in the source and are kept apart here.

What was measured:
S. aureus RN450 = test: In Vitro Anti-Bacterial Activity Assay (MIC), gram positive; type: cell-based; details: Staphylococcus aureus, RN450, 18 h
E. coli mL308 225 = test: In Vitro Anti-Bacterial Activity Assay (MIC), gram negative; type: cell-based; details: Escherichia coli, ML308225, 18 h
[1] = MIC class, Table 3, read-out: Antibiotic Activity Gram +
[2] = MIC class, Table 3, read-out: Antibiotic Activity Gram −
[3] = gram positive bacteria, read-out: Antibiotic Activity Gram + (MIC)
[4] = gram negative bacteria, read-out: Antibiotic Activity Gram − (MIC)

In the case of `CN(C)[C@H]1C(O)=C(C(N)=O)C(=O)[C@@]2(O)C(O)=C3C(=O)c4c(O)c(CNCC(C)(C)C)cc(-c5ccoc5)c4C[C@H]3C[C@@H]12` [NP], the MIC (S. aureus RN450; [1]) is reported as < 4 mg/L and the MIC (E. coli mL308 225; [2]) is reported as < 4 mg/L.
`CC(=O)c1cccc(-c2ccc(O)c3c2C[C@H]2C[C@H]4[C@H](N(C)C)C(O)=C(C(N)=O)C(=O)[C@@]4(O)C(O)=C2C3=O)c1` [AO] was tested, and the MIC (S. aureus RN450; [1]) was < 4 mg/L and the MIC (E. coli mL308 225; [2]) was > 4 mg/L.
With `CN(C)CCC(=O)c1ccc(O)c2c1C[C@H]1C[C@H]3[C@H](N(C)C)C(O)=C(C(N)=O)C(=O)[C@@]3(O)C(O)=C1C2=O` [drawing 3401] the MIC (S. aureus RN450; [3]) was < 4 mg/L and the MIC (E. coli mL308 225; [4]) was > 4 mg/L.
`CN(C)[C@@H]1C(O)=C(C(N)=O)C(=O)[C@@]2(O)C(O)=C3C(=O)c4c(O)c(CN5CCCCC5)cc(-c5ccccn5)c4C[C@H]3C[C@@H]12` was tested, and the MIC (S. aureus RN450; [3]) was < 4 mg/L and the MIC (E. coli mL308 225; [4]) was > 4 mg/L.
`CN(C)[C@@H]1C(O)=C(C(N)=O)C(=O)[C@@]2(O)C(O)=C3C(=O)c4c(ccc(NC(=O)c5ccno5)c4O)C[C@H]3C[C@@H]12` [IJ] was tested, and the MIC (S. aureus RN450; [1]) was < 4 mg/L and the MIC (E. coli mL308 225; [2]) was > 4 mg/L.
With `CCCC#Cc1cc(N(C)C)c2c(c1O)C(=O)C1=C(O)[C@]3(O)C(=O)C(C(N)=O)=C(O)[C@@H](N(C)C)[C@@H]3C[C@@H]1C2` [DY] the MIC (S. aureus RN450; [1]) was < 4 mg/L and the MIC (E. coli mL308 225; [2]) was > 4 mg/L.
With `CC1C(C(=O)[C@@H]2CC(=O)C(C(N)=O)=C(O)[C@H]2N(C)C)=C(C(=O)NCC(C)(C)C)C(=O)c2c(O)cccc21` (some centres unmarked) the MIC (S. aureus RN450; [3]) was > 4 mg/L and the MIC (E. coli mL308 225; [4]) was > 4 mg/L.
With `C[C@H]1c2ccc(-c3ccc(N(C)C)cc3)c(O)c2C(=O)C2=C(O)[C@]3(O)C(=O)C(C(N)=O)=C(O)[C@@H](N(C)C)[C@@H]3[C@@H](O)[C@@H]21` the MIC (S. aureus RN450; [3]) was < 4 mg/L and the MIC (E. coli mL308 225; [4]) was < 4 mg/L.
For `C[C@H]1c2ccc(N)c(O)c2C(=O)C2=C(O)[C@]3(O)C(=O)C(C(N)=O)=C(O)[C@@H](N(C)C)[C@@H]3[C@@H](O)[C@@H]21`, the MIC (S. aureus RN450; [3]) was > 4 mg/L and the MIC (E. coli mL308 225; [4]) was > 4 mg/L.
In the case of `CC(=O)c1ccc(NC(=O)NCc2cc(N(C)C)c3c(c2O)C(=O)C2=C(O)[C@]4(O)C(=O)C(C(N)=O)=C(O)[C@@H](N(C)C)[C@@H]4C[C@@H]2C3)cc1` [FL], the MIC (S. aureus RN450; [1]) is reported as < 4 mg/L and the MIC (E. coli mL308 225; [2]) is reported as > 4 mg/L.
`CN(C)[C@@H]1C(O)=C(C(N)=O)C(=O)[C@@]2(O)C(O)=C3C(=O)c4c(O)c(CN)cc(Cl)c4C=C3C[C@@H]12` was tested, and the MIC (S. aureus RN450; [3]) was > 4 mg/L and the MIC (E. coli mL308 225; [4]) was > 4 mg/L.
In the case of `CN(C)c1cc(-c2ccc(OC(F)(F)F)cc2)c(O)c2c1C[C@H]1C[C@H]3[C@H](N(C)C)C(O)=C(C(N)=O)C(=O)[C@@]3(O)C(O)=C1C2=O` [EK], the MIC (S. aureus RN450; [1]) is reported as < 4 mg/L and the MIC (E. coli mL308 225; [2]) is reported as > 4 mg/L.
For `CN(C)c1ccc(-c2cc(C(C)(C)C)c(O)c3c2C[C@H]2C[C@H]4[C@H](N(C)C)C(O)=C(C(N)=O)C(=O)[C@@]4(O)C(O)=C2C3=O)cc1`, the MIC (S. aureus RN450; [3]) was > 4 mg/L and the MIC (E. coli mL308 225; [4]) was > 4 mg/L.
In the case of `COc1ccc(CNCC(F)(F)F)cc1-c1ccc(O)c2c1C[C@H]1C[C@H]3C(N(C)C)C(O)=C(C(N)=O)C(=O)[C@@]3(O)C(O)=C1C2=O` (some centres unmarked) [NQ], the MIC (S. aureus RN450; [1]) is reported as < 4 mg/L and the MIC (E. coli mL308 225; [2]) is reported as > 4 mg/L.
In the case of `CCCCOC(=O)c1ccc(O)c2c1C[C@H]1C[C@H]3[C@H](N(C)C)C(O)=C(C(N)=O)C(=O)[C@@]3(O)C(O)=C1C2=O`, the MIC (S. aureus RN450; [3]) is reported as < 4 mg/L and the MIC (E. coli mL308 225; [4]) is reported as < 4 mg/L.
`CC(CF)NCc1cc(N(C)C)c2c(c1O)C(=O)C1=C(O)[C@]3(O)C(=O)C(C(N)=O)=C(O)[C@@H](N(C)C)[C@@H]3C[C@@H]1C2` (some centres unmarked) was tested, and the MIC (S. aureus RN450; [3]) was < 4 mg/L and the MIC (E. coli mL308 225; read-out: Antibiotic Activity Gram − (MIC)) was > 4 mg/L.
For `CN(C)[C@@H]1C(O)=C(C(N)=O)C(=O)[C@@]2(O)C(O)=C3C(=O)c4c(O)ccc(CNC(=O)c5ccccn5)c4C[C@H]3C[C@@H]12`, the MIC (S. aureus RN450; [3]) was < 4 mg/L and the MIC (E. coli mL308 225; [4]) was > 4 mg/L.
`CC(=O)c1cc(N(C)C)c2c(c1O)C(=O)C1=C(O)[C@]3(O)C(=O)C(C(N)=O)=C(O)[C@@H](N(C)C)[C@@H]3C[C@@H]1C2` [MQ] was tested, and the MIC (S. aureus RN450; [1]) was > 4 mg/L and the MIC (E. coli mL308 225; [2]) was > 4 mg/L.
In the case of `CCC1(C)CCN(Cc2cc(N(C)C)c3c(c2O)C(=O)C2=C(O)[C@]4(O)C(=O)C(C(N)=O)=C(O)[C@@H](N(C)C)[C@@H]4C[C@@H]2C3)CC1`, the MIC (S. aureus RN450; [3]) is reported as < 4 mg/L and the MIC (E. coli mL308 225; [4]) is reported as < 4 mg/L.
For `CN(C)c1cc(-c2ccc(F)c(F)c2)c(O)c2c1C[C@H]1C[C@H]3[C@H](N(C)C)C(O)=C(C(N)=O)C(=O)[C@@]3(O)C(O)=C1C2=O`, the MIC (S. aureus RN450; MIC class, Table 3 (Continued), read-out: Gram+ activity) was < 4 mg/L and the MIC (E. coli mL308 225; MIC class, Table 3 (Continued), read-out: Gram− activity) was < 4 mg/L.
`CCC(C)CNCc1ccc(O)c2c1C[C@H]1C[C@H]3[C@H](N(C)C)C(O)=C(C(N)=O)C(=O)[C@@]3(O)C(O)=C1C2=O` (some centres unmarked) [KE] was tested, and the MIC (S. aureus RN450; [1]) was < 4 mg/L and the MIC (E. coli mL308 225; [2]) was < 4 mg/L.
For `CN(C)[C@@H]1C(O)=C(C(N)=O)C(=O)[C@@]2(O)C(O)=C3C(=O)c4c(O)c(C(C)(C)C)cc(C(N)C(=O)O)c4C[C@H]3C[C@@H]12` (some centres unmarked) [FS], the MIC (S. aureus RN450; [1]) was > 4 mg/L and the MIC (E. coli mL308 225; [2]) was > 4 mg/L.
